Read-outs that look alike come from different tables or passages of the source.
Tests used:
DOHH2 cells = test: Cell proliferation assay (MTS), DOHH2 cells, 120 h; type: cell-based
In short: (§1)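 Cells in RPMI-1640 with 10% FBS were seeded at 5000/well, left overnight at 37° C., 5% CO2, then exposed to compound at 10000 down to 1.5 nM (nine concentrations) for 72 h (RS4;11) or 120 h (DOHH2). Viability was read by MTS, 2 h, absorbance at 490/650 nm; IC50 calculated.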

RS4;11 cells = test: Cell proliferation assay (MTS), RS4;11 cells, 72 h; type: cell-based; conditions: Homo sapiens, RS4-11, 72 h
In short: as §1

Row | Structure (SMILES) | IC50 (DOHH2 cells; Homo sapiens, DOHH-2, 120 h) | IC50 (RS4;11 cells) | IC50 (DOHH2 cells)
1 | CC1(C)CCC(CN2CCN(c3ccc(C(=O)NS(=O)(=O)c4cc5c(c([N+](=O)[O-])c4)N[C@@H](CCN4CCC(C)(O)CC4)CO5)c(Oc4cnc5[nH]ccc5c4)c3)CC2)=C(c2ccc(Cl)cc2)C1 [Example 2-11, (S)-2-((1H-pyrrolo[2,3-b]pyridin-5-yl)oxy)-4-(4-((4′-chloro-5,5-dimethyl-3,4,5,6-tetra-hydro-[1,1′-biphenyl]-2-yl)methyl)piperazin-1-yl)-N-((3-(2-(4-hydroxy-4-methylpiper-idin-1-yl)ethyl)-5-nitro-3,4-dihydro-2H-benzo[b][1,4]oxazin-7-yl)sulfonyl)benzamide] | 53 nM | 12 nM | 
2 | CC1(C)CCC(CN2CCN(c3ccc(C(=O)NS(=O)(=O)c4cc5c(c([N+](=O)[O-])c4)N[C@@H](CCN4CCN(C6COC6)CC4)CO5)c(Oc4cnc5[nH]ccc5c4)c3)CC2)=C(c2ccc(Cl)cc2)C1 [Example 2-48, (S)-2-((1H-pyrrolo[2,3-b]pyridin-5-yl)oxy)-4-(4-((4′-chloro-5,5-dimethyl-3,4,5,6-tetra-hydro-[1,1′-biphenyl]-2-yl)methyl)piperazin-1-yl)-N-((5-nitro-3-(2-(4-(oxetan-3-yl)piper-azin-1-yl)ethyl)-3,4-dihydro-2H-benzo [b][1,4]oxazin-7-yl)sulfonyl)benzamide] | 9 nM | 14 nM | 
3 | CS(=O)OCC[C@H]1CSc2cc(S(=O)(=O)NC(=O)c3ccc(N4CCN(CC5=C(c6ccc(Cl)cc6)CC(C)(C)CC5)CC4)cc3Oc3cnc4[nH]ccc4c3)cc([N+](=O)[O-])c2N1 (stereo partly drawn) [Example 3-17, 2-((S)-7-(N-(2-((1H-pyrrolo[2,3-b]pyridin-5-yl)oxy)-4-(4-((4′-chloro-5,5-dimethyl-3,4,5,6-tetrahydro-[1,1′-biphenyl]-2-yl)methyl)piperazin-1-yl)benzoyl)sulfamoyl)-5-nitro-3,4-dihydro-2H-benzo[b][1,4]thiazin-3-yl) ethyl methanesulfinate] | 49 nM | 19 nM | 
4 | CC1(C)CCC(CN2CCN(c3ccc(C(=O)NS(=O)(=O)c4cc5c(c([N+](=O)[O-])c4)N[C@H](CCS(C)(=O)=O)CO5)c(Oc4cnc5[nH]ccc5c4)c3)CC2)=C(c2ccc(Cl)cc2)C1 [Example 2-64, (R)-2-((1H-pyrrolo[2,3-b]pyriidn-5-yl)oxy)-4-(4-((4′-chloro-5,5-dimethyl-3,4,5,6-tetra-hydro-[1,1′-biphenyl]-2-yl)methyl)piperazin-1-yl)-N-((3-(2-(methylsulfonyl)ethyl)-5-nitro-3,4-dihydro-2H-benzo[b][1,4]oxazin-7-yl)sulfonyl)benzamide] | 70 nM | 25 nM | 
5 | CC1(C)CCC(CN2CCN(c3ccc(C(=O)NS(=O)(=O)c4cc5c(c([N+](=O)[O-])c4)N[C@@H](CN4CCN(C6COC6)CC4)CO5)c(Oc4cnc5[nH]ccc5c4)c3)CC2)=C(c2ccc(Cl)cc2)C1 [Example 2-28, (S)-2-((1H-pyrrolo[2,3-b]pyridin-5-yl)oxy)-4-(4-((4′-chloro-5,5-dimethyl-3,4,5,6-tetra-hydro-[1,1′-biphenyl]-2-yl)methyl)piperazin-1-yl)-N-((5-nitro-3-((4-(oxetan-3-yl)piper-azin-1-yl)methyl)-3,4-dihydro-2H-benzo[b] [1,4]oxazin-7-yl)sulfonyl)benzamide] | 1 nM | 1 nM | 
6 | CC1(C)CCC(CN2CCN(c3ccc(C(=O)NS(=O)(=O)c4cc5c(c([N+](=O)[O-])c4)N[C@@H](CCO)CS5)c(Oc4cnc5[nH]ccc5c4)c3)CC2)=C(c2ccc(Cl)cc2)C1 [Example 3-15, (S)-2-((1H-pyrrolo[2,3-b]pyridin-5-yl)oxy)-4-(4-((4′-chloro-5,5-dimethyl-3,4,5,6-tetra-hydro-[1,1′-biphenyl]-2-yl)methyl)piperazin-1-yl)-N-((3-(2-hydroxyethyl)-5-nitro-3,4-dihydro-2H-benzo[b][1,4]thiazin-7-yl)sulfonyl) benzamide] | 48 nM | 13 nM | 
7 | CC1(C)CCC(CN2CCN(c3ccc(C(=O)NS(=O)(=O)c4cc5c(c([N+](=O)[O-])c4)N[C@H](C4CCC(O)CC4)CO5)c(Oc4cnc5[nH]ccc5c4)c3)CC2)=C(c2ccc(Cl)cc2)C1 (single isomer, unassigned) [Example 2-240A] |  | 1 nM | 5 nM
8 | CN1CCN(CC[C@@H]2CSc3cc(S(=O)(=O)NC(=O)c4ccc(N5CCN(CC6=C(c7ccc(Cl)cc7)CC(C)(C)CC6)CC5)cc4Oc4cnc5[nH]ccc5c4)cc([N+](=O)[O-])c3N2)CC1 [Example 3-14, (R)-2-((1H-pyrrolo[2,3-b]pyridin-5-yl)oxy)-4-(4-((4′-chloro-5,5-dimethyl-3,4,5,6-tetra-hydro-[1,1′-biphenyl]-2-yl)methyl)piperazin-1-yl)-N-((3-(2-(4-methylpiperazin-1-yl)ethyl)-5-nitro-3,4-dihydro-2H-benzo[b][1,4]thiazin-7-yl)sulfonyl)benzamide] | 9 nM | 4 nM | 
9 | CC1(C)CCC(CN2CCN(c3ccc(C(=O)NS(=O)(=O)c4cc5c(c([N+](=O)[O-])c4)N[C@H](CCNS(C)(=O)=O)CO5)c(Oc4cnc5[nH]ccc5c4)c3)CC2)=C(c2ccc(Cl)cc2)C1 [Example 2-68, (R)-2-((1H-pyrrolo[2,3-b]pyridin-5-yl)oxy)-4-(4-((4′-chloro-5,5-dimethyl-3,4,5,6-tetra-hydro-[1,1′-biphenyl]-2-yl)methyl)piperazin-1-yl)-N-((3-(2-(methysulfonamido)ethyl)-5-nitro-3,4-dihydro-2H-benzo[b][1,4]oxa-zin-7-yl)sulfonyl)benzamide] | 83 nM | 26 nM | 
10 | CC1(C)CCC(CN2CCN(c3ccc(C(=O)NS(=O)(=O)c4cc5c(c([N+](=O)[O-])c4)N[C@@H](COC4CC4)CO5)c(Oc4cnc5[nH]ccc5c4)c3)CC2)=C(c2ccc(Cl)cc2)C1 [Example 2-241, (S)-2-((1H-pyrrolo[2,3-b]pyridin-5-yl)oxy)-4-(4-((4′-chloro-5,5-dimethyl-3,4,5,6-tetra-hydro-[1,1′-biphenyl]-2-yl)methyl)piperazin-1-yl)-N-((3-(cyclopropoxymethyl)-5-nitro-3,4-dihydro-2H-benzo[b][1,4]oxazin-7-yl)sulfonyl)benzamide] | 11 nM | 4 nM | 
11 | CC1(C)CCC(CN2CCN(c3ccc(C(=O)NS(=O)(=O)c4cc5c(c([N+](=O)[O-])c4)N[C@@H](CC4CCNCC4)CO5)c(Oc4cnc5[nH]ccc5c4)c3)CC2)=C(c2ccc(Cl)cc2)C1 [Example 2-221, (S)-2-((1H-pyrrolo[2,3-b]pyridin-5-yl)oxy)-4-(4-((4′-chloro-5,5-dimethyl-3,4,5,6-tetra-hydro-[1,1′-biphenyl]-2-yl)methyl)piperazin-1-yl)-N-((5-nitro-3-(piperidin-4-ylmethyl)-3,4-dihydro-2H-benzo[b][1,4]oxazin-7-yl)sulfonyl)benzamide] | 474 nM | 30 nM | 
12 | CC1(C)CCC(CN2CCN(c3ccc(C(=O)NS(=O)(=O)c4cc5c(c([N+](=O)[O-])c4)N[C@@H](CCO)CO5)c(Oc4cnc5[nH]ccc5c4)c3)CC2)=C(c2ccc(Cl)cc2)C1 [Example 2-13, (S)-2-((1H-pyrrolo[2,3-b]pyridin-5-yl)oxy)-4-(4-((4′-chloro-5,5-dimethyl-3,4,5,6-tetra-hydro-[1,1′-biphenyl]-2-yl)methyl)piperazin-1-yl)-N-((3-(2-hydroxyethyl)-5-nitro-3,4-dihydro-2H-benzo[b][1,4]oxazin-7-yl)sulfonyl)benzamide] | 33 nM | 9 nM | 
13 | CC1(C)CCC(c2ccc(Cl)cc2)=C(CN2CCN(c3ccc(C(=O)NS(=O)(=O)c4cc5c(c([N+](=O)[O-])c4)N[C@@H](C4CCOCC4)CO5)c(Oc4cnc5[nH]ccc5c4)c3)CC2)C1 [Example 2-212, (S)-2-((1H-pyrrolo[2,3-b]pyridin-5-yl)oxy)-4-(4-((4′-chloro-4,4-dimethyl-3,4,5,6-tetra-hydro-[1,1′-biphenyl]-2-yl)methyl)piperazin-1-yl)-N-((5-nitro-3-(tetrahydro-2H-pyran-4-yl)-3,4-dihydro-2H-benzo[b][1,4]oxazin-7-yl)sulfonyl)benzamide] | 27 nM | 8 nM | 
14 | CC1(C)CCC(CN2CCN(c3ccc(C(=O)NS(=O)(=O)c4cc5c(c([N+](=O)[O-])c4)N[C@H](CN4CCN(C(=O)C6CC6)CC4)CO5)c(Oc4cnc5[nH]ccc5c4)c3)CC2)=C(c2ccc(Cl)cc2)C1 [Example 2-94, (R)-2-((1H-pyrrolo[2,3-b]pyridin-5-yl)oxy)-4-(4-((4′-chloro-5,5-dimethyl-3,4,5,6-tetra-hydro-[1,1′-biphenyl]-2-yl)methyl)piperazin-1-yl)-N-((3-((4-(cyclopropanecarbonyl)piperazin-1-yl)methyl)-5-nitro-3,4-dihydro-2H-benzo[b][1,4]oxazin-7-yl)sulfonyl)benza-mide] | 1 nM | 20 nM | 
15 | C[C@@H]1CN(C[C@@H]2COc3cc(S(=O)(=O)NC(=O)c4ccc(N5CCN(CC6=C(c7ccc(Cl)cc7)CC(C)(C)CC6)CC5)cc4Oc4cnc5[nH]ccc5c4)cc([N+](=O)[O-])c3N2)CCN1C1COC1 [Example 2-22, 2-((1H-pyrrolo[2,3-b]pyridin-5-yl)oxy)-4-(4-((4′-chloro-5,5-dimethyl-3,4,5,6-tetra-hydro-[1,1′-biphenyl]-2-yl)methyl)piperazin-1-yl)-N-(((R)-3-(((R)-3-methyl-4-(oxetan-3-yl)piperazin-1-yl)methyl)-5-nitro-3,4-dihydro-2H-benzo[b][1,4]oxazin-7-yl)sulfonyl) benzamide] | 2 nM | 1 nM | 
16 | CC1(C)CCC(CN2CCN(c3ccc(C(=O)NS(=O)(=O)c4cc5c(c([N+](=O)[O-])c4)N[C@H](CCN4CC(O)C4)CO5)c(Oc4cnc5[nH]ccc5c4)c3)CC2)=C(c2ccc(Cl)cc2)C1 [Example 2-34, (R)-2-((1H-pyrrolo[2,3-b]pyridin-5-yl)oxy)-4-(4-((4′-chloro-5,5-dimethyl-3,4,5,6-tetra-hydro-[1,1′-biphenyl]-2-yl)methyl)piperazin-1-yl)-N-((3-(2-(3-hydroxyazetidin-1-yl)eth-yl)-5-nitro-3,4-dihydro-2H-benzo[b][1,4]oxazin-7-yl)sulfonyl)benzamide] | 41 nM | 14 nM | 
